Reference: patent US20050131045A1, “Novel crystal forms of ondansetron, processes for their preparation, pharmaceutical, compositions containing the novel forms and methods for treating nausea using them” (priority 2002, published 2005)

Assay: Solubility in C1-C3 alcohols
Format: physicochemical
Settings: methanol, ethanol, propan-1-ol, propan-2-ol; room temperature
Description: Ondansetron Form B may be prepared by crystallizing ondansetron from a solution in a C1-C3 alcohol, in particular, methanol, ethanol, propan-1-ol, propan-2-ol and mixtures thereof. Ondansetron is dissolved in the C1-C3 alcohol, preferably in an amount sufficient to produce from about a 50 mM to about a 300 mM solution, more preferably from about an 85 mM to about a 150 mM solution. […] Consequently, it may be necessary to heat the mixture in order to fully dissolve it. Preferably, the mixture is refluxed until the mixture becomes a clear solution. The solution is preferably free of solid ondansetron that could potentially seed the mixture causing precipitation of ondansetron in a crystalline form other than Form B or co-crystallization of Form B with another form. Preferably, the Form B obtained by crystallization from the alcohol solution contains less than or equal to about 5% other crystalline forms of ondansetron, more preferably Form B contains less than or equal to about 1% other crystalline forms of ondansetron.

solubility in C1-C3 alcohols: limited solubility
Compound: Cc1nccn1CC1CCc2c(c3ccccc3n2C)C1=O (racemic) [Ondansetron, (±) 1,2,3,9-Tetrahydro-9-methyl-3-[2-methyl-1H-imidazol-1-yl)methyl]-4H-carbazol-4-one]
